Laboratory results: paper PMC12281424, “A Rac-specific competitive inhibitor of guanine nucleotide binding reduces metastasis in triple-negative breast cancer” (Cell Reports Medicine, 2025)

Tests used:
STK32C(h) = STK32C(h) (Homo sapiens, UniProt Q86UX6); test: Kinase Profiler; format: biochemical
Procedure: (§1) The kinase profiler was performed by the company Eurofins (Discovery, Panlab and Cerep).

Hck(h) activated = Hck(h) activated (Homo sapiens, UniProt P08631); test: Kinase Profiler; format: biochemical
Procedure: as §1

NIH/3T3 cell migration = test: 1D cell migration (CYTOO plates); format: cell-based; details: 10^-5 M
Procedure: NIH3T3cells (1000/well) were seeded in a 96 well plate with […] fibronectin stripes (CytooPlates Motility, CYTOO) in medium with 1% SVF and allowed to spread for 4 h before capturing time-lapse images for 24 h (image/10 min) on a Widefield Leica DMI 6000B drove with Metamorph software. Cells speed was measured with ImageJ software.
Supplementary Fig. 3: Example of one pharmacophore model used for virtual screening. (a) The pharmacophore model shown was created based on RAC1 (grey) and NSC23766 (orange) interaction. The pharmacophore model is formed by two hydrogenbond acceptor(HBA)features,one orientedtowardsthe hydroxylgroup of Ser71 (S71) and the other towards the amine group of Gln74 (Q74), one hydrogen bond donor (HBD) feature pointed to the oxygenatom of Leu70 (L70) and two hydrophobic features (HY) located on certain carbon atoms of NSC23766 and facing residues Val36 (V36), Ala59 (A59), Tyr64 (Y64) and Leu67 (L67). The spheres correspond to locationconstraint. […] (b) Impact of different screening molecules (10^-5 M) on NIH/3T3 cell adhesion (xCELLingence Real-time cellanalysis, Agilent), migration (CYTOO Mobility plates) and proliferation (xCELLingence Real-time cell analysis, Agilent) .The level of RAC activation is determinedby the detection of RAC-GTP (pull-down assay) in NIH/3T3 cell treated with EGF (10 ng/mL) and the differentmolecules and normalize to the level of RAC activity measuredin the presenceof the reference RAC inhibitor EHT1864.
Supplementary Fig. 4: A41 inhibits RAC-dependent cell functions. (a) Representative records of single NIH/3T3 cell migration on micropatterned fibronectin lines (CYTOO Mobility plates) in the absence (Control)and presenceA41 at 10^-5 M (left panel) and corresponding quantification of migration speed (right panel) (scale bar: 20µm). […] (b) Typical curves showing the cell index representing the adhesion of NIH/3T3 fibroblast (xCELLingence Real-time cell analysis, Agilent) under control condition (Control) and pre-treated with 10 µM A41 or NSC23766 (left panel) and corresponding quantification of cell adhesion speed (right panel). […]

Muscarinic M3 = Muscarinic M3 (Homo sapiens, UniProt P20309); test: Safety screen; format: binding
Chain of Muscarinic M3 (P20309 whole entry): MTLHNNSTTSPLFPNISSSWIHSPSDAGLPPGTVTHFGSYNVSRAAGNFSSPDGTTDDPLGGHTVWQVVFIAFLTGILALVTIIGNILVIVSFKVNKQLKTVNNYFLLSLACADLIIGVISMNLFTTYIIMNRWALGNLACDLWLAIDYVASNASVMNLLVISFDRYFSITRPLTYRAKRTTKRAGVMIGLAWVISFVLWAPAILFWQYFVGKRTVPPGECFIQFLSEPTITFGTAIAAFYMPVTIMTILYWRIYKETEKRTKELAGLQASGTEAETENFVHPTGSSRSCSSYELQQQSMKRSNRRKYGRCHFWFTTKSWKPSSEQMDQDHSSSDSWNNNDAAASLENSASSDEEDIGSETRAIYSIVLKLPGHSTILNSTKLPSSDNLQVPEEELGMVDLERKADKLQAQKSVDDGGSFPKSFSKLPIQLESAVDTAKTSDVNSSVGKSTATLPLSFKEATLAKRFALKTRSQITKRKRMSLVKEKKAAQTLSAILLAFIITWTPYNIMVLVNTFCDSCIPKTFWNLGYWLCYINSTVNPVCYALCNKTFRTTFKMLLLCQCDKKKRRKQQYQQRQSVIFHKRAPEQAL
Procedure: (§2) Blood cell counts, kinase profiler, safety screen, bacterial cytotoxicity, Ames, micronucleus assays were performed by the company Eurofins (France).

[1] = molecular target: Platelet Activating Factor (PAF) (Homo sapiens, UniProt P25105); test: Safety screen; format: binding
Procedure: (§3) Blood cell counts, kinase profiler, safety screen, bacterial cytotoxicity, Ames, micronucleus assays were performed by the company Eurofins (France). The kinase profiler was performed by the company Eurofins (Discovery, Panlab and Cerep).

PAK2(h) = PAK2(h) (Homo sapiens, UniProt Q13177); test: Kinase Profiler; format: biochemical
Procedure: as §3

[2] = molecular target: PI3K (p110a(E542K)/p85a)(m) (Mus musculus, UniProt P42337, E542K); test: Kinase Profiler; format: biochemical
Procedure: as §1

DNA-PK(h) = DNA-PK(h) (Homo sapiens, UniProt P78527); test: Kinase Profiler; format: biochemical
Procedure: as §1

BTK(R28H)(h) = BTK(R28H)(h) (Homo sapiens, UniProt Q06187, R28H); test: Kinase Profiler; format: biochemical
Procedure: as §3

SAPK3(h) = SAPK3(h) (Homo sapiens, UniProt P53778); test: Kinase Profiler; format: biochemical
Procedure: as §1

RIPK2(h) = RIPK2(h) (Homo sapiens, UniProt O43353); test: Kinase Profiler; format: biochemical
Procedure: as §1

Opiate µ(OP3, MOP) = Opiate µ(OP3, MOP) (Homo sapiens, UniProt P35372); test: Safety screen; format: binding
Procedure: as §3

Adrenergic α1B = Adrenergic α1B (Rattus norvegicus, UniProt P15823); test: Safety screen; format: binding
Chain of Adrenergic α1B (P15823 whole entry): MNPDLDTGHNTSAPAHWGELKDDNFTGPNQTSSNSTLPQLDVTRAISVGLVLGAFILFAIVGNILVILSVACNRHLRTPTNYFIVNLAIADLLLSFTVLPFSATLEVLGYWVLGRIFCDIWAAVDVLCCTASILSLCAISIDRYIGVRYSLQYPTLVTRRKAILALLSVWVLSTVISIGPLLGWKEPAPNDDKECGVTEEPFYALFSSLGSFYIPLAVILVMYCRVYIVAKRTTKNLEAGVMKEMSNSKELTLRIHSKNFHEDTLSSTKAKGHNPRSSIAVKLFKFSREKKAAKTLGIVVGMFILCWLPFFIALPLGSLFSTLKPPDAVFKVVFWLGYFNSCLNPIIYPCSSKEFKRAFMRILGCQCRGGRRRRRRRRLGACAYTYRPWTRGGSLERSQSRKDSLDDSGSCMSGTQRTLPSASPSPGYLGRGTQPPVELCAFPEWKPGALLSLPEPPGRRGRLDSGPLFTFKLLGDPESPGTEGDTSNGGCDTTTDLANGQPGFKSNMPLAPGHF
Procedure: as §2

Abl(m) = Abl(m) (Mus musculus, UniProt P00520); test: Kinase Profiler; format: biochemical
Procedure: as §1

DYRK1A(h) = DYRK1A(h) (Homo sapiens, UniProt Q13627); test: Kinase Profiler; format: biochemical
Procedure: as §3

Plk4(h) = Plk4(h) (Homo sapiens, UniProt O00444); test: Kinase Profiler; format: biochemical
Procedure: as §3

PKCζ(h) = PKCζ(h) (Homo sapiens, UniProt Q05513); test: Kinase Profiler; format: biochemical
Procedure: as §1

CDKL4(h) = CDKL4(h) (Homo sapiens, UniProt Q5MAI5); test: Kinase Profiler; format: biochemical
Procedure: as §1

EphB1(h) = EphB1(h) (Homo sapiens, UniProt P54762); test: Kinase Profiler; format: biochemical
Chain of EphB1(h) (P54762 18-984): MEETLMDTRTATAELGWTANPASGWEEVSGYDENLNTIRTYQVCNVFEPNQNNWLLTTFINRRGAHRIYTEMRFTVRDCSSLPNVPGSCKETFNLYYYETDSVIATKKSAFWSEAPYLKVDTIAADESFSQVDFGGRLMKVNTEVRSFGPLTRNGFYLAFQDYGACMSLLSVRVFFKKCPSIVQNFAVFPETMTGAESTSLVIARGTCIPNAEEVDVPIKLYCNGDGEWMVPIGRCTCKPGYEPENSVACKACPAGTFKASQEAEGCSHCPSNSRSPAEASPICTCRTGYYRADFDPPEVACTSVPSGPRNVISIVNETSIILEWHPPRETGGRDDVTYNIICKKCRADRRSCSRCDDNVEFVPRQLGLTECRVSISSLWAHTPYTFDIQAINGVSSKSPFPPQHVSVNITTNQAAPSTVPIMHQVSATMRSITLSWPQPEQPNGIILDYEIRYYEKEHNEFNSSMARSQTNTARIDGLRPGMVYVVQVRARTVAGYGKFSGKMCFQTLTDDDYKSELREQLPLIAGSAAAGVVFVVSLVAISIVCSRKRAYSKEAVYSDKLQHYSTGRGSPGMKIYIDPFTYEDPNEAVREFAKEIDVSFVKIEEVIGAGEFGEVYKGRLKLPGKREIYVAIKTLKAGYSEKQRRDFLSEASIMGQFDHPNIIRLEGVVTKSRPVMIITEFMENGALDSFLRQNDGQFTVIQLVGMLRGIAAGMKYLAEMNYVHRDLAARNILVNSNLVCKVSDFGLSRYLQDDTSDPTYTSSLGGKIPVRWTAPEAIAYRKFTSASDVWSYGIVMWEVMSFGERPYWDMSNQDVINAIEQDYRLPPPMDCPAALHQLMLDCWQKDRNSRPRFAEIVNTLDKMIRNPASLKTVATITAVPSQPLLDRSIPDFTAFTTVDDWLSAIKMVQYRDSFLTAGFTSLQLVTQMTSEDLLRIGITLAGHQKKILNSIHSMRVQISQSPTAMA
Procedure: as §3

Glucocorticoid = Glucocorticoid (Homo sapiens, UniProt P04150); test: Safety screen; format: binding
Chain of Glucocorticoid (P04150 whole entry): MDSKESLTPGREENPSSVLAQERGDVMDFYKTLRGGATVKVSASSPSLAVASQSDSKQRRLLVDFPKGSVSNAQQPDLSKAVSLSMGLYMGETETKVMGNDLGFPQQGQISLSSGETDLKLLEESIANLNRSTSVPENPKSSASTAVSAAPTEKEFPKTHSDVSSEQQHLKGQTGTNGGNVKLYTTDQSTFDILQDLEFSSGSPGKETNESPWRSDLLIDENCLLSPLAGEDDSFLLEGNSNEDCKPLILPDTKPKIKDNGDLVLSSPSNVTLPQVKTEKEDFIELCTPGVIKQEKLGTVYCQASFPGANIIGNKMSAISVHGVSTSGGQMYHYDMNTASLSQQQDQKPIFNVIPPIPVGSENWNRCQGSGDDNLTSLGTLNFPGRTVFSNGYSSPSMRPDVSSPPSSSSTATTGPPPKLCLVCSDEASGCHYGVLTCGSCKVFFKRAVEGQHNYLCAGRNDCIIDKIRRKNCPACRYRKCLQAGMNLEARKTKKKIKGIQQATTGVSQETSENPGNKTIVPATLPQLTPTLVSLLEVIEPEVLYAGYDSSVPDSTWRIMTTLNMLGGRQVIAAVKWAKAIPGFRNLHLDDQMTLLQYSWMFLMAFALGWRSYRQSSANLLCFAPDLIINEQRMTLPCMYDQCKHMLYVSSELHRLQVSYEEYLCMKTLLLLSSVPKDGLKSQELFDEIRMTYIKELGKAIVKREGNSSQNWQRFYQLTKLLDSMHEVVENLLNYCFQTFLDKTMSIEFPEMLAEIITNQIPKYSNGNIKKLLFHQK
Procedure: as §2

Blk(h) = Blk(h) (Homo sapiens, UniProt P51451); test: Kinase Profiler; format: biochemical
Procedure: as §3

[3] = system: Calcium Channel L-Type, Phenylalkylamine; test: Safety screen; format: binding, rat
[4] = molecular target: PI3K (p110a(E545K)/p85a)(m) (Mus musculus, UniProt P42337, E545K); test: Kinase Profiler; format: biochemical
Procedure: as §3

MLCK(h) = MLCK(h) (Homo sapiens, UniProt Q15746); test: Kinase Profiler; format: biochemical
Procedure: as §3

TTK(h) = TTK(h) (Homo sapiens, UniProt P33981); test: Kinase Profiler; format: biochemical
Chain of TTK(h) (P33981 whole entry): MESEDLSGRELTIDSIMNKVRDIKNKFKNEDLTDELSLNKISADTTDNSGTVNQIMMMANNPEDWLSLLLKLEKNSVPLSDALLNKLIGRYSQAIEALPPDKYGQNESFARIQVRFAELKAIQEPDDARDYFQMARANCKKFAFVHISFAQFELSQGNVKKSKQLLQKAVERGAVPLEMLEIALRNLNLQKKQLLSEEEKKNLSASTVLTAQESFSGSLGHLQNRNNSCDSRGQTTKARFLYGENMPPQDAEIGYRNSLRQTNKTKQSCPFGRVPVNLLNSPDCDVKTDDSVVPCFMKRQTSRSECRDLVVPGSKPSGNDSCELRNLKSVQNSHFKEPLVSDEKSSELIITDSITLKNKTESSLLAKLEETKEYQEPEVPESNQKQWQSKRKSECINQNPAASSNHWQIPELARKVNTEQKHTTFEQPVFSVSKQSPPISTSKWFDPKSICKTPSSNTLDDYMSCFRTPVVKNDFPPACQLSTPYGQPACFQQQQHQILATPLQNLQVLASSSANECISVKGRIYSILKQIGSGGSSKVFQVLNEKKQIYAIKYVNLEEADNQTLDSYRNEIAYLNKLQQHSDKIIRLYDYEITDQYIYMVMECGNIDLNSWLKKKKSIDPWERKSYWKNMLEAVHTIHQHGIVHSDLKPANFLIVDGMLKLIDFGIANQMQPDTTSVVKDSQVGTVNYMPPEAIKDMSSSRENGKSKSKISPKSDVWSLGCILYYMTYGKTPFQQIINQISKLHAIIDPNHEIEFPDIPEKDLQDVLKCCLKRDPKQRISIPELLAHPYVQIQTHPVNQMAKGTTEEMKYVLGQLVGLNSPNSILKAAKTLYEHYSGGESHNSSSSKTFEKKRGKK
Procedure: as §1

MAP4K5(h) = MAP4K5(h) (Homo sapiens, UniProt Q9Y4K4); test: Kinase Profiler; format: biochemical
Procedure: as §1

NUAK2(h) = NUAK2(h) (Homo sapiens, UniProt Q9H093); test: Kinase Profiler; format: biochemical
Chain of NUAK2(h) (Q9H093 whole entry): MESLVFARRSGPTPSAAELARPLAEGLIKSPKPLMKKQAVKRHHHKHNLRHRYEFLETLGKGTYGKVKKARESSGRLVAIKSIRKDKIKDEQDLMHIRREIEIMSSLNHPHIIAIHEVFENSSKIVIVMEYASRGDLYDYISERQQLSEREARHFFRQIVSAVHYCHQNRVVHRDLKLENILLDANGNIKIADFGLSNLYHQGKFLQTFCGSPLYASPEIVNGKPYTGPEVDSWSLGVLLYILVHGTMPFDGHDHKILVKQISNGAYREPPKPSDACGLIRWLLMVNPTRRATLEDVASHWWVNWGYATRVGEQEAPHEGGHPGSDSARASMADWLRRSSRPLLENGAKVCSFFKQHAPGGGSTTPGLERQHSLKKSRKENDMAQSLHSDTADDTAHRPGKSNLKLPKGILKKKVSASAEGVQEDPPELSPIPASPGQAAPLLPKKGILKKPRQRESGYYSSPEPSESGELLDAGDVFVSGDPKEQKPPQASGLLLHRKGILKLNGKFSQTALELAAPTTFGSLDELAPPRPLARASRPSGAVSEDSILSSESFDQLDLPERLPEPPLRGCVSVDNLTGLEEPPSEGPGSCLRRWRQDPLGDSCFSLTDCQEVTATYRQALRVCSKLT
Procedure: as §1

Chain of Hck(h) activated (P08631 whole entry): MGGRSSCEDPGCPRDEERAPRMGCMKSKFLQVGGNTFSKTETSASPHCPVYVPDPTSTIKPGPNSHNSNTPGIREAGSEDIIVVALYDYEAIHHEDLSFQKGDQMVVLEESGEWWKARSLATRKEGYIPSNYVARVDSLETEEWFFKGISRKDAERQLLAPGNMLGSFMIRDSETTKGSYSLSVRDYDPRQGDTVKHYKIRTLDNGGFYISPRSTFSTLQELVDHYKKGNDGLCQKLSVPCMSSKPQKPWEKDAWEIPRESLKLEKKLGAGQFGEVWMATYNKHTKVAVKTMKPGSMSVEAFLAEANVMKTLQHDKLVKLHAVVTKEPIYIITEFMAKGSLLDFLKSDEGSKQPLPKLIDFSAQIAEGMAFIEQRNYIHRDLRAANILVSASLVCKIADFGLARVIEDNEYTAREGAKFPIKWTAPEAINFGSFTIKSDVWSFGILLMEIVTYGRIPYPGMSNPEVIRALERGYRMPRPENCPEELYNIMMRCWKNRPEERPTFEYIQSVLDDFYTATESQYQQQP

In the case of `COc1ccc(OC)c(NS(=O)(=O)c2ccc(NC(=O)CCSc3ccc(C)cc3)cc2)c1` [Compound A41], the “Activity(%)” value (STK32C(h)) is reported as 105%, the “Activity(%)” value (Hck(h) activated) is reported as 102% and the cell migration (NIH/3T3 cell migration) is reported as “efficiently inhibited both functions”. The “% inh.” value (Muscarinic M3) was 4%, the “% inh.” value [1] was 78% and the “Activity(%)” value (PAK2(h)) was 110%. For the same compound, the “Activity(%)” value [2] was 99%, the “Activity(%)” value (DNA-PK(h)) was 122% and the “Activity(%)” value (BTK(R28H)(h)) was 102%. For the same compound, the “Activity(%)” value (SAPK3(h)) was 105%, the “Activity(%)” value (RIPK2(h)) was 94% and the “% inh.” value (Opiate µ(OP3, MOP)) was 14%. The “% inh.” value (Adrenergic α1B) was 41%, the “Activity(%)” value (Abl(m)) was 125% and the “Activity(%)” value (DYRK1A(h)) was 93%. The “Activity(%)” value (Plk4(h)) was 104%, the “Activity(%)” value (PKCζ(h)) was 97% and the “Activity(%)” value (CDKL4(h)) was 91%. For the same compound, the “Activity(%)” value (EphB1(h)) was 111%, the “% inh.” value (Glucocorticoid) was 17% and the “Activity(%)” value (Blk(h)) was 99%. For the same compound, the “% inh.” value [3] was 52%, the “Activity(%)” value [4] was 100% and the “Activity(%)” value (MLCK(h)) was 103%. For the same compound, the “Activity(%)” value (TTK(h)) was 103%, the “Activity(%)” value (MAP4K5(h)) was 102% and the “Activity(%)” value (NUAK2(h)) was 110%.
